In patent publication US12539292B2, “BRM targeting compounds and associated methods of use” (Arvinas Operations, Inc., priority 2018, dated 2026) one finds Dmax and DC50 data, which are given here for 12 molecules.

Read-outs that look alike come from different tables or passages of the source.

For the assay, the target named is T1, BRM (Homo sapiens, UniProt P51531).
T1 construct: In-Cell Western Screen of BRM Degradation in SW1573 Cells; endogenous in cells; host or cells: SW1573
Nature of the assay: In-cell Western screen of BRM degradation in SW1573 cells (Dmax and DC50). The class given is cell-based. Put shortly:
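SW1573 cells were treated overnight (18-20 hours) with compound at 0.1% final DMSO. They were then PFA-fixed, permeabilised with Triton X-100 and immunostained with 800 nm/680 nm secondary antibodies. BRM signal was quantified by LI-COR in-cell Western imaging to derive Dmax and DC50.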

Setting [1] is: BRM degradation, read-out: BRM DC50.
[2] abbreviates: SW1573, % degraded, when tested at the top concentration of between 0.3 and 10 μM, read-out: BRM Dmax (%).
[3] abbreviates: BRM degradation, SW1573 cells, read-out: DC50.
The mark [4] stands for this setting: BRM degradation, SW1573 cells, read-out: Dmax (% degraded).
Setting [5] is: BRM degradation, SW1573 cells, tested at the top concentration of between 0.3 and 10 μM, read-out: Dmax (%) (% degraded).

T1 sequence (P51531 whole entry): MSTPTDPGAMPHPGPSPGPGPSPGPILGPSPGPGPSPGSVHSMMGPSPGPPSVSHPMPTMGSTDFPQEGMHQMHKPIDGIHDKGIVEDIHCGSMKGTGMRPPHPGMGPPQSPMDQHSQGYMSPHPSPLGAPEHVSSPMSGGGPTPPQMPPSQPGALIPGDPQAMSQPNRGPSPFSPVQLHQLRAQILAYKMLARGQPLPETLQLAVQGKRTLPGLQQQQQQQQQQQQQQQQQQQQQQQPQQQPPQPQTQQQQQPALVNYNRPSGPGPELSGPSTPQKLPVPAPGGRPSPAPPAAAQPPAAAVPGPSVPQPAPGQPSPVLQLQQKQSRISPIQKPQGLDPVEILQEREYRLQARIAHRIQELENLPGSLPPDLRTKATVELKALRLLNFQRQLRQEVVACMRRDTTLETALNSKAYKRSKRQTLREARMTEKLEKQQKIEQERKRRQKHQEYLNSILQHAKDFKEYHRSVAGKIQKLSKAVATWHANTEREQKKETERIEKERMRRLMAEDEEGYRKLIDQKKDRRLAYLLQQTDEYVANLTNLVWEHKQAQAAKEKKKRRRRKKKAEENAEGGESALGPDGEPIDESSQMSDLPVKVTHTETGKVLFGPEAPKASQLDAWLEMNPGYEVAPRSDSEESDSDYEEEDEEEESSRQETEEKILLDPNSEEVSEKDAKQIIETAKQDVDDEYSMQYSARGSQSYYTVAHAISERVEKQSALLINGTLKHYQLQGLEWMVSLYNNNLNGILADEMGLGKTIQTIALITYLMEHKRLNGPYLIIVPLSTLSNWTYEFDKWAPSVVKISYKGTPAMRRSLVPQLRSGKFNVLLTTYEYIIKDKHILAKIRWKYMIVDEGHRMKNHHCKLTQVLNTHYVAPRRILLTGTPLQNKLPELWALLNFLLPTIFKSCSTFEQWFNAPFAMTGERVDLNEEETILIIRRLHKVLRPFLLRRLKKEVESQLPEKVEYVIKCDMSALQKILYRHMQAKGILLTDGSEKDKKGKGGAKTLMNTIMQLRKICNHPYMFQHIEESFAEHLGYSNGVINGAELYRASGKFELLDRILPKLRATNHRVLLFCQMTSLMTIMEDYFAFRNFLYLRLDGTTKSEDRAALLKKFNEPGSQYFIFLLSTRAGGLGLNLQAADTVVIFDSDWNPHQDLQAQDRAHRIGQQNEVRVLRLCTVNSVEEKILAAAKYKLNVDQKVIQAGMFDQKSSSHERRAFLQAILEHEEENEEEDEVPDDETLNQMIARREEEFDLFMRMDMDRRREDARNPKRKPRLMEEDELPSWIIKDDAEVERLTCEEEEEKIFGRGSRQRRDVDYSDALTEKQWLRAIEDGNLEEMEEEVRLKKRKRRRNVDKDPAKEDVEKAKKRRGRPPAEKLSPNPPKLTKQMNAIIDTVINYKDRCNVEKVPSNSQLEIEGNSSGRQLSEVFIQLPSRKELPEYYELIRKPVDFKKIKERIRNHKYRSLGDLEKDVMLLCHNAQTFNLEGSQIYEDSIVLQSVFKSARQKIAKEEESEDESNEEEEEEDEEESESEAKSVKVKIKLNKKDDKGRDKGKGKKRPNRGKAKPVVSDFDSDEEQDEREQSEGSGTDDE

Take `CC(C)[C@@H](C(=O)N1C[C@H](O)C[C@H]1C(=O)N[C@@H](C)c1ccc(-n2ccnc2N)cc1)c1cc(N2CCC(CN3CCC(O[C@H]4C[C@H](Oc5cc(N6C7CCC6CN(c6cc(-c8ccccc8O)nnc6N)C7)ccn5)C4)CC3)CC2)no1` [compound 621, (2S,4R)-N-((S)-1-(4-(2-amino-1H-imidazol-1-yl)phenyl)ethyl)-1-((2R)-2-(3-(4-((4-((1r,3r)-3-((4-(3-(3-amino-6-(2-hydroxyphenyl)pyridazin-4-yl)-3,8-diazabicyclo[3.2.1]octan-8-yl)pyridin-2-yl)oxy)cyclobutoxy)piperidin-1-yl)methyl)piperidin-1-yl)isoxazol-5-yl)-3-methylbutanoyl)-4-hydroxypyrrolidine-2-carboxamide]: the Dmax (BRM degradation, SW1573 cells, Table 2D, read-out: **Dmax (%) (% degraded)) was greater than 75%. Under “BRM degradation, SW1573 cells, Table 2D, read-out: *DC50”, the DC50 is less than 2.5 nM.
Take `Cc1ncsc1-c1ccc([C@H](C)NC(=O)[C@@H]2C[C@@H](O)CN2C(=O)[C@@H](c2cc(OCCN3CCC(O[C@H]4C[C@H](Oc5cc(N6C7CCC6CN(c6cc(-c8cc(F)ccc8O)nnc6N)C7)ccn5)C4)CC3)no2)C(C)C)cc1` [compound 502, (2S,4R)-1-((2R)-2-(3-(2-(4-((1r,3R)-3-((4-(3-(3-amino-6-(5-fluoro-2-hydroxyphenyl)pyridazin-4-yl)-3,8-diazabicyclo[3.2.1]octan-8-yl)pyridin-2-yl)oxy)cyclobutoxy)piperidin-1-yl)ethoxy)isoxazol-5-yl)-3-methylbutanoyl)-4-hydroxy-N-((S)-1-(4-(4-methylthiazol-5-yl)phenyl)ethyl)pyrrolidine-2-carboxamide]: under setting [1], the half-maximal degradation concentration (DC50) is less than 2.5 nM. The maximal degradation (Dmax) under setting [2] was greater than 75%.
Turning to `CC[C@H](NC(=O)[C@@H]1C[C@@H](O)CN1C(=O)[C@@H](c1cc(N2CCC(CN3CCC(O[C@H]4C[C@H](Oc5cc(N6C7CCC6CN(c6cc(-c8ccccc8O)nnc6N)C7)ccn5)C4)CC3)CC2)no1)C(C)C)c1ccc(-c2scnc2C)cc1` [compound 654, (2S,4R)-1-((2R)-2-(3-(4-((4-((1r,3r)-3-((4-(3-(3-amino-6-(2-hydroxyphenyl)pyridazin-4-yl)-3,8-diazabicyclo[3.2.1]octan-8-yl)pyridin-2-yl)oxy)cyclobutoxy)piperidin-1-yl)methyl)piperidin-1-yl)isoxazol-5-yl)-3-methylbutanoyl)-4-hydroxy-N-((S)-1-(4-(4-methylthiazol-5-yl)phenyl)propyl)pyrrolidine-2-carboxamide], the half-maximal degradation concentration (DC50) under setting [3] is less than 2.5 nM. Further, the Dmax under setting [4] was greater than 75%.
With `Cc1ncsc1-c1ccc(CNC(=O)[C@@H]2C[C@@H](O)CN2C(=O)[C@H](c2cc(CCCOCCOCCOCCn3cc(-c4cc(-c5ccccc5O)nnc4N)cn3)no2)C(C)C)cc1` [compound 23, (2S,4R)-1-[(2S)-2-[3-(3-[2-[2-(2-[4-[3-amino-6-(2-hydroxyphenyl)pyridazin-4-yl]-1H-pyrazol-1-yl]ethoxy)ethoxy]ethoxy]propyl)-1,2-oxazol-5-yl]-3-methylbutanoyl]-4-hydroxy-N-[[4-(4-methyl-1,3-thiazol-5-yl)phenyl]methyl]pyrrolidine-2-carboxamide], the DC50 under setting [3] was greater than 30 nM. Besides, the greatest degradation seen (Dmax) (BRM degradation, SW1573 cells, when tested at the top concentration of between 0.3 and 10 μM, read-out: Dmax (%) (% degraded)) is greater than 75%.
As for `CC(C)[C@H](C(=O)N1C[C@H](O)C[C@H]1C(=O)N[C@@H](C)c1ccc(C#N)cc1)c1cc(OCCN2CCC(O[C@H]3C[C@H](Oc4cc(N5C6CCC5CN(c5cc(-c7ccccc7O)nnc5N)C6)ccn4)C3)CC2)no1` [compound 204, (2S,4R)-1-((2S)-2-(3-(2-(4-((1r,3S)-3-((4-(3-(3-amino-6-(2-hydroxyphenyl)pyridazin-4-yl)-3,8-diazabicyclo[3.2.1]octan-8-yl)pyridin-2-yl)oxy)cyclobutoxy)piperidin-1-yl)ethoxy)isoxazol-5-yl)-3-methylbutanoyl)-N-((S)-1-(4-cyanophenyl)ethyl)-4-hydroxypyrrolidine-2-carboxamide], the 50% degradation concentration (DC50) under setting [3] is greater than 30 nM. For the same molecule, the Dmax under setting [5] is greater than 75%.
Take `Cc1ncsc1-c1ccc([C@H](C)NC(=O)[C@@H]2C[C@@H](O)CN2C(=O)[C@@H](c2cc(N3CCC4(CCCN(C[C@H]5C[C@H](Oc6cc(N7C8CCC7CN(c7cc(-c9ccccc9O)nnc7N)C8)ccn6)C5)C4)CC3)no2)C(C)C)cc1` [compound 660, (2S,4R)-1-((2R)-2-(3-(2-(((1r,3R)-3-((4-(3-(3-amino-6-(2-hydroxyphenyl)pyridazin-4-yl)-3,8-diazabicyclo[3.2.1]octan-8-yl)pyridin-2-yl)oxy)cyclobutyl)methyl)-2,9-diazaspiro[5.5]undecan-9-yl)isoxazol-5-yl)-3-methylbutanoyl)-4-hydroxy-N-((S)-1-(4-(4-methylthiazol-5-yl)phenyl)ethyl)pyrrolidine-2-carboxamide]: the DC50 under setting [3] is less than 2.5 nM. Further, the Dmax under setting [4] is greater than 75%.
With `Cc1ncsc1-c1ccc([C@H](C)NC(=O)[C@@H]2C[C@@H](O)CN2C(=O)C(c2cc(OCCN3[C@H](C)C[C@H](O[C@H]4C[C@H](Oc5cc(N6C7CCC6CN(c6cc(-c8ccccc8O)nnc6N)C7)ccn5)C4)C[C@@H]3C)no2)C(C)C)cc1` (mixture of isomers) [compound 635, (2S,4R)-1-(2-(3-(2-((2S,4S,6R)-4-((1r,3R)-3-((4-(3-(3-amino-6-(2-hydroxyphenyl)pyridazin-4-yl)-3,8-diazabicyclo[3.2.1]octan-8-yl)pyridin-2-yl)oxy)cyclobutoxy)-2,6-dimethylpiperidin-1-yl)ethoxy)isoxazol-5-yl)-3-methylbutanoyl)-4-hydroxy-N-((S)-1-(4-(4-methylthiazol-5-yl)phenyl)ethyl)pyrrolidine-2-carboxamide], the DC50 under setting [3] was less than 2.5 nM. Also, the Dmax under setting [4] was greater than 75%.
On to `Cc1ncsc1-c1ccc([C@H](C)NC(=O)[C@@H]2C[C@@H](O)CN2C(=O)[C@@H](c2onc(OCCN3CCC(O[C@H]4C[C@H](Oc5cc(N6C7CCC6CN(c6cc(-c8ccccc8O)nnc6N)C7)ccn5)C4)CC3)c2Cl)C(C)C)cn1` [compound 223, (2S,4R)-1-((2R)-2-(3-(2-(4-((1r,3R)-3-((4-(3-(3-amino-6-(2-hydroxyphenyl)pyridazin-4-yl)-3,8-diazabicyclo[3.2.1]octan-8-yl)pyridin-2-yl)oxy)cyclobutoxy)piperidin-1-yl)ethoxy)-4-chloroisoxazol-5-yl)-3-methylbutanoyl)-4-hydroxy-N-((S)-1-(6-(4-methylthiazol-5-yl)pyridin-3-yl)ethyl)pyrrolidine-2-carboxamide], for which, under setting [3], the DC50 was 2.5 to 10 nM. In addition, the Dmax under setting [5] was greater than 75%.
For the molecule `Cc1ncsc1-c1ccc([C@H](COCC2CCOCC2)NC(=O)[C@@H]2C[C@@H](O)CN2C(=O)[C@H](c2cc(OCCN3CCN(CCOc4cc(N5C6CCC5CN(c5cc(-c7ccccc7O)nnc5N)C6)ccn4)CC3)no2)C(C)C)cc1` [compound 262, (2S,4R)-1-((2S)-2-(3-(2-(4-(2-((4-(3-(3-amino-6-(2-hydroxyphenyl)pyridazin-4-yl)-3,8-diazabicyclo[3.2.1]octan-8-yl)pyridin-2-yl)oxy)ethyl)piperazin-1-yl)ethoxy)isoxazol-5-yl)-3-methylbutanoyl)-4-hydroxy-N-((R)-1-(4-(4-methylthiazol-5-yl)phenyl)-2-((tetrahydro-2H-pyran-4-yl)methoxy)ethyl)pyrrolidine-2-carboxamide], the DC50 under setting [3] was greater than 30 nM.
Turning to `Cc1cnn(C)c1-c1ccc([C@H](C)NC(=O)[C@@H]2C[C@@H](O)CN2C(=O)[C@H](c2cc(OCCN3CCC(O[C@H]4C[C@H](Oc5cc(N6C7CCC6CN(c6cc(-c8ccccc8O)nnc6N)C7)ccn5)C4)CC3)no2)C(C)C)cc1` [compound 294, (2S,4R)-1-((2S)-2-(3-(2-(4-((1r,3S)-3-((4-(3-(3-amino-6-(2-hydroxyphenyl)pyridazin-4-yl)-3,8-diazabicyclo[3.2.1]octan-8-yl)pyridin-2-yl)oxy)cyclobutoxy)piperidin-1-yl)ethoxy)isoxazol-5-yl)-3-methylbutanoyl)-N-((S)-1-(4-(1,4-dimethyl-1H-pyrazol-5-yl)phenyl)ethyl)-4-hydroxypyrrolidine-2-carboxamide], under setting [3], the DC50 lay within 2.5 to 10 nM. Moreover, the Dmax under setting [5] was greater than 75%.
As to `COc1nc(-c2scnc2C)ccc1[C@H](C)NC(=O)[C@@H]1C[C@@H](O)CN1C(=O)[C@@H](c1cc(OCCN2CCC(O[C@H]3C[C@H](Oc4cc(N5C6CCC5CN(c5cc(-c7ccccc7O)nnc5N)C6)ccn4)C3)CC2)no1)C(C)C` [compound 279, (2S,4R)-1-((2R)-2-(3-(2-(4-((1r,3R)-3-((4-(3-(3-amino-6-(2-hydroxyphenyl)pyridazin-4-yl)-3,8-diazabicyclo[3.2.1]octan-8-yl)pyridin-2-yl)oxy)cyclobutoxy)piperidin-1-yl)ethoxy)isoxazol-5-yl)-3-methylbutanoyl)-4-hydroxy-N-((S)-1-(2-methoxy-6-(4-methylthiazol-5-yl)pyridin-3-yl)ethyl)pyrrolidine-2-carboxamide], the DC50 under setting [3] is less than 2.5 nM. Further, the Dmax under setting [5] was greater than 75%.
For `Cc1ncsc1-c1ccc([C@H](C)NC(=O)[C@@H]2C[C@@H](O)CN2C(=O)[C@@H](c2cc(OCC[C@H]3CCN(C[C@H]4C[C@H](Oc5cc(N6C7CCC6CN(c6cc(-c8ccccc8O)nnc6N)C7)ccn5)C4)[C@H](C)C3)no2)C(C)C)cc1` [compound 535, (2S,4R)-1-((2R)-2-(3-(2-((2R,4S)-1-(((1r,3R)-3-((4-(3-(3-amino-6-(2-hydroxyphenyl)pyridazin-4-yl)-3,8-diazabicyclo[3.2.1]octan-8-yl)pyridin-2-yl)oxy)cyclobutyl)methyl)-2-methylpiperidin-4-yl)ethoxy)isoxazol-5-yl)-3-methylbutanoyl)-4-hydroxy-N-((S)-1-(4-(4-methylthiazol-5-yl)phenyl)ethyl)pyrrolidine-2-carboxamide], the DC50 under setting [1] was less than 2.5 nM. Besides, under setting [2], the maximal degradation (Dmax) was greater than 75%.
